Biological target: T1, Pfnek-2(V24C) (Plasmodium falciparum, UniProt C0H4G2, V24C)
T1 construct: gene PF3D7_0525900
T1 sequence (C0H4G2 1-286 V24C): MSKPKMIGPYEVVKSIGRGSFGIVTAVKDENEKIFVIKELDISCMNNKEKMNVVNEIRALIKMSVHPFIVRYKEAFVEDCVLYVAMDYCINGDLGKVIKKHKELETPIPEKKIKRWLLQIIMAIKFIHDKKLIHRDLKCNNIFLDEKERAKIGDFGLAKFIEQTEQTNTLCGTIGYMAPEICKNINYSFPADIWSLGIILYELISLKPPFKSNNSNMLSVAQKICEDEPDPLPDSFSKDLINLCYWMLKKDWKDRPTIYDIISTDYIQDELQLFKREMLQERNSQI
Experiment: in vitro […]-ATP kinase assay (MBP substrate), washout, intact-protein LC-MS (mass shift […] Da)
Assay type: biochemical

Compound: C#Cc1nc(Nc2ccc(S(N)(=O)=O)cc2)nc2[nH]cnc12 [NCL-00016066, 4-(6-ethynyl-9H-purin-2-ylamino) benzene sulfonamide]
- IC50: 501 nM

Source: article PMC5100313, “A new tool for the chemical genetic investigation of the Plasmodium falciparum Pfnek-2 NIMA-related kinase” (Malaria Journal, 2016)
